Measurements taken from US8088927B2, “Fungicide N-cycloalkyl-benzyl-amide derivatives” (Bayer Cropscience AG, priority 2006, dated 2012).

assay: log P determination by HPLC on reversed-phase column (C 18), EEC Directive 79/831 Annex V.A8; assay type: physicochemical; conditions: HPLC on reversed-phase column (C 18)
Method: Temperature: 40° C.; Mobile phases: 0.1% aqueous formic acid and acetonitrile; linear gradient from 10% acetonitrile to 90% acetonitrile.
Calibration was carried out using unbranched alkan-2-ones (comprising 3 to 16 carbon atoms) with known log P values (determination of the log P values by the retention times using linear interpolation between two successive alkanones).

Row | Compound | LogP
1 | Cc1nc(C(F)(F)F)c(C(=O)N(Cc2ccc(Cl)cc2Cl)C2CC2)s1 [Compound 168] | 4.19
2 | Cc1nc(C(F)F)c(C(=O)N(Cc2ccc(Cl)cc2Cl)C2CC2)s1 [Compound 169] | 3.74
3 | Cc1nc(C(F)(F)F)c(C(=O)N(Cc2c(Cl)cc(Cl)cc2Cl)C2CC2)s1 [Compound 170] | 4.52
4 | Cc1nc(C(F)F)c(C(=O)N(Cc2c(Cl)cc(Cl)cc2Cl)C2CC2)s1 [Compound 171] | 4.1
5 | Cc1nc(C(F)F)c(C(=O)N(Cc2ccc(C(F)(F)F)cc2)C2CC2)s1 [Compound 172] | 3.37
6 | Cc1nc(C(F)F)c(C(=O)N(C2CC2)C(C)c2ccc(Cl)cc2Cl)s1 (stereo not drawn) [Compound 173] | 3.9
7 | Cc1nc(C(F)F)c(C(=O)N(C2CC2)C(C#N)c2ccc(Cl)cc2Cl)s1 (stereo not drawn) [Compound 209] | 3.61
8 | Cc1nc(C(F)F)c(C(=O)N(C2CC2)C(C#N)c2c(Cl)cccc2Cl)s1 (stereo not drawn) [Compound 213] | 3.14
9 | Cc1nn(C)c(F)c1C(=O)N(Cc1ccc(Cl)cc1Cl)C1CC1 [Compound 236] | 3.04
10 | Cc1nn(C)c(F)c1C(=O)N(Cc1ccc(C(F)(F)F)cc1)C1CC1 [Compound 237, N-(4-trifluoromethyl-benzyl)-N-cyclopropyl-5-fluoro-1,3-dimethyl-1H-pyrazole-4-carboxamide] | 2.8
11 | Cc1nn(C)c(F)c1C(=O)N(Cc1c(Cl)cc(Cl)cc1Cl)C1CC1 [Compound 238] | 3.32
12 | Cn1cc(C(=O)N(Cc2ccc(Cl)cc2Cl)C2CC2)c(C(F)F)n1 [Compound 241] | 3.27
13 | Cn1cc(C(=O)N(Cc2ccc(C(F)(F)F)cc2)C2CC2)c(C(F)F)n1 [Compound 242] | 2.98
14 | Cn1cc(C(=O)N(Cc2c(Cl)cc(Cl)cc2Cl)C2CC2)c(C(F)F)n1 [Compound 243] | 3.46
15 | Cn1cc(C(=O)N(Cc2ccc(Oc3ccccc3)cc2)C2CC2)c(C(F)F)n1 [Compound 244] | 3.37
16 | CC(c1ccc(Cl)cc1Cl)N(C(=O)c1cn(C)nc1C(F)F)C1CC1 (stereo not drawn) [Compound 245] | 3.31
17 | CC(c1ccc(C(F)(F)F)cc1)N(C(=O)c1cn(C)nc1C(F)F)C1CC1 (stereo not drawn) [Compound 246] | 3.27
18 | COc1nn(C)cc1C(=O)N(Cc1ccc(Cl)cc1Cl)C1CC1 [Compound 251] | 2.81
19 | Cn1cc(C(=O)N(Cc2ccc(Cl)cc2Cl)C2CC2)c(C(F)(F)F)n1 [Compound 252] | 3.58
20 | CCOc1nn(C)cc1C(=O)N(Cc1ccc(Cl)cc1Cl)C1CC1 [Compound 253] | 3.22
21 | Cn1cc(C(=O)N(Cc2ccc(Cl)cc2Cl)C2CC2)c(I)n1 [Compound 254] | 3.15

Row | Compound | LogP
22 | COc1nn(C)cc1C(=O)N(Cc1c(Cl)cc(Cl)cc1Cl)C1CC1 [Compound 255] | 2.97
23 | Cn1cc(C(=O)N(Cc2c(Cl)cc(Cl)cc2Cl)C2CC2)c(C(F)(F)F)n1 [Compound 256] | 3.78
24 | CCOc1nn(C)cc1C(=O)N(Cc1c(Cl)cc(Cl)cc1Cl)C1CC1 [Compound 257] | 3.35
25 | Cn1cc(C(=O)N(Cc2c(Cl)cc(Cl)cc2Cl)C2CC2)c(I)n1 [Compound 258] | 3.34
26 | COc1nn(C)cc1C(=O)N(Cc1ccc(C(F)(F)F)cc1)C1CC1 [Compound 259] | 2.61
27 | Cn1cc(C(=O)N(Cc2ccc(C(F)(F)F)cc2)C2CC2)c(C(F)(F)F)n1 [Compound 260] | 3.29
28 | CCOc1nn(C)cc1C(=O)N(Cc1ccc(C(F)(F)F)cc1)C1CC1 [Compound 261] | 2.92
29 | Cn1cc(C(=O)N(Cc2ccc(C(F)(F)F)cc2)C2CC2)c(I)n1 [Compound 262] | 2.92
30 | Cc1nn(C)c(F)c1C(=O)N(C1CC1)C(C)c1ccc(Cl)cc1Cl (stereo not drawn) [Compound 263] | 3.19
31 | COc1nn(C)cc1C(=O)N(C1CC1)C(C)c1ccc(Cl)cc1Cl (stereo not drawn) [Compound 264] | 2.83
32 | CCOc1nn(C)cc1C(=O)N(C1CC1)C(C)c1ccc(Cl)cc1Cl (stereo not drawn) [Compound 265] | 3.19
33 | CC(c1ccc(Cl)cc1Cl)N(C(=O)c1cn(C)nc1I)C1CC1 (stereo not drawn) [Compound 266] | 3.22
34 | COC(=O)C(c1ccccc1Cl)N(C(=O)c1c(C)nn(C)c1F)C1CC1 (stereo not drawn) [Compound 383] | 2.57
35 | Cc1nn(C)c(F)c1C(=O)N(C1CC1)C(C#N)c1ccc(Cl)cc1Cl (stereo not drawn) [Compound 385] | 3.15
36 | CCC(c1ccc(Cl)cc1Cl)N(C(=O)c1c(C)nn(C)c1F)C1CC1 (stereo not drawn) [Compound 386] | 3.53
37 | Cc1nn(C)c(F)c1C(=O)N(Cc1cccc(Br)c1)C1CC1 [Compound 412] | 2.66
38 | Cc1nn(C)c(F)c1C(=O)N(Cc1ccc(Br)cc1)C1CC1 [Compound 422] | 2.67
39 | COC(c1ccc(Cl)cc1Cl)N(C(=O)c1c(C)nn(C)c1F)C1CC1 (stereo not drawn) [Compound 500] | 2.96
40 | Cn1cnc(C(=O)N(Cc2c(Cl)cc(Cl)cc2Cl)C2CC2)c1 [Compound 503] | 2.40
41 | CCn1nc(C)c(Br)c1C(=O)N(Cc1c(Cl)cc(Cl)cc1Cl)C1CC1 [Compound 541] | 2.4

same assay, conditions: HPLC, C 18, 40° C., 0.1% aqueous formic acid and acetonitrile gradient

Row | Compound | LogP
42 | Cc1occc1C(=O)N(Cc1ccc(Cl)cc1Cl)C1CC1 [Compound 11] | 3.77
43 | Cc1cc(C(=O)N(Cc2ccc(Cl)cc2Cl)C2CC2)c(C(F)(F)F)o1 [Compound 12] | 4.6
44 | Cc1occc1C(=O)N(Cc1c(Cl)cc(Cl)cc1Cl)C1CC1 [Compound 13] | 4.09
45 | Cc1cc(C(=O)N(Cc2c(Cl)cc(Cl)cc2Cl)C2CC2)c(C(F)(F)F)o1 [Compound 14] | 4.91
46 | Cc1occc1C(=O)N(Cc1ccc(C(F)(F)F)cc1)C1CC1 [Compound 15] | 3.43
47 | Cc1cc(C(=O)N(Cc2ccc(C(F)(F)F)cc2)C2CC2)c(C(F)(F)F)o1 [Compound 16] | 4.18
48 | O=C(c1sccc1I)N(Cc1ccc(Cl)cc1Cl)C1CC1 [Compound 58] | 4.48
49 | O=C(c1sccc1I)N(Cc1c(Cl)cc(Cl)cc1Cl)C1CC1 [Compound 59] | 4.86
50 | O=C(c1sccc1I)N(Cc1ccc(C(F)(F)F)cc1)C1CC1 [Compound 60] | 4.04
51 | Cn1cc(C(=O)N(Cc2ccc(Cl)cc2Cl)C2CC2)c(C(F)(F)F)c1 [Compound 98] | 3.88
52 | Cn1cc(C(=O)N(Cc2c(Cl)cc(Cl)cc2Cl)C2CC2)c(C(F)(F)F)c1 [Compound 99] | 4.08
53 | Cn1cc(C(=O)N(Cc2ccc(C(F)(F)F)cc2)C2CC2)c(C(F)(F)F)c1 [Compound 100] | 3.55

same assay, conditions: reversed-phase HPLC column (C 18); HPLC, C 18, 40° C., 0.1% aqueous formic acid and acetonitrile gradient

Row | Compound | chromatographic logP
54 | Cc1nn(C)c(F)c1C(=O)N(Cc1ccc(C(F)(F)F)cc1)C1CC1 [Compound 237, N-(4-trifluoromethyl-benzyl)-N-cyclopropyl-5-fluoro-1,3-dimethyl-1H-pyrazole-4-carboxamide] | 2.8
